Legend:
[1] = test system: S. aureus N315 pRB474-lugIEFGH; test: MIC determination, broth microdilution in BM; format: cell-based, Staphylococcus aureus; details: for Effect of constitutive LugIEFGH expression on S. aureus susceptibility (in words): S. aureus pRB474-lugIEFGH compared with S. aureus pRB474 (Fig. 4); for MIC S. aureus pRB474-lugIEFGH: Table S2, mean MIC in BM-medium, 37°C, 24 h, 75% growth reduction, at least three independent experiments; for Ratio of MICs, S. aureus pRB474-lugIEFGH versus S. aureus pRB474: Table S2 / Fig. 4b, BM-medium
Method: (§1) Further strains used for MIC determination were S. aureus N315 with plasmids pRB474, pRB474-lugI, pRB474-lugEF, pRB474-lugIEF, pRB474-lugGH, pRB474-lugIGH, pRB474-lugEFGH, and pRB474-lugIEFGH.
(§2) If necessary, antibiotic was used at a concentration of 10 μg ml^−1 for chloramphenicol.
(§3) Strains used for MIC determinations were grown overnight in BM, with chloramphenicol for plasmid-containing strains, under continuous shaking at 37°C. Each strain was adjusted to OD600 of 0.0625 in BM. The antimicrobial molecule stock solutions were serially diluted in BM in 96-well microtiter plates. Each well with 100 μl medium, and chloramphenicol, if required, was inoculated with 2 μl of the OD600 of 0.0625 bacterial stock solution. The plates were incubated at 37°C for 24 h under continuous shaking (160 rpm). The OD600 of each well was measured with a microplate reader, and the concentration leading to a 75% growth reduction was calculated and defined as the MIC value.

S. aureus N315 pRB474 = test: MIC determination, broth microdilution in BM; format: cell-based, Staphylococcus aureus; details: Table S2, mean MIC in BM-medium; empty vector strain; 37°C, 24 h, 75% growth reduction; at least three independent experiments
Method: as §1, §2, §3

Row | Compound | Effect of constitutive LugIEFGH expression on S. aureus susceptibility (in words) [1] | MIC S. aureus pRB474-lugIEFGH [1] | Ratio of MICs, S. aureus pRB474-lugIEFGH versus S. aureus pRB474 [1] | MIC S. aureus pRB474 (S. aureus N315 pRB474)
1 | enantio-lugdunin | some degree of resistance | 69.8 µg/mL | 2.23 | 31.3 µg/mL
2 | CO[C@@H]1C[C@@H](C[C@H]2CC[C@H](C)[C@H]([C@@H](C)C(=O)O)O2)O[C@]2(O[C@](C)([C@H]3CC[C@@](C)([C@@H]4O[C@@H]([C@H]5O[C@@](O)(CO)[C@H](C)C[C@@H]5C)C[C@@H]4C)O3)C[C@H]2C)[C@@H]1C [nigericin] | did not affect the susceptibility | 0.25 µg/mL | 1.00 | 0.25 µg/mL
3 | gramicidin S | did not affect the susceptibility | 2.74 µg/mL | 1.00 | 2.75 µg/mL
4 | 6-Trp-lugdunin | Similar, though even less pronounced | 31.1 µg/mL | 1.89 | 16.4 µg/mL
5 | N#CC(C#N)=NNc1cccc(Cl)c1 [CCCP, carbonyl cyanide m-chlorophenylhydrazone] | did not affect the susceptibility | 0.64 µg/mL | 1.02 | 0.63 µg/mL
6 | daptomycin | did not affect the susceptibility | 2.17 µg/mL | 1 | 2.17 µg/mL
7 | 2-Ala-lugdunin | no resistance against the 2-Ala congener was conferred | 39.9 µg/mL | 0.99 | 40.2 µg/mL

From article PMC7927808 (Antimicrobial Agents and Chemotherapy, 2020)
